Test results: patent US7820817B2, “Modulators of muscarinic receptors” (Vertex Pharmaceuticals Incorporated, priority 2004, dated 2010)

What follows are compounds tested on at least one muscarinic receptor, M1, M2, M3, M4 (assay: Muscarinic modulation activity (Table 3)). Conditions: concentration at which modulation of at least one muscarinic receptor, M1, M2, M3, M4, was exhibited; CHO cells.
Assay type: cell-based
Parameters: key: +++: exhibited muscarinic modulation activity for at least one muscarinic receptor, M1, M2, M3, M4, at a concentration of less than 5 μM; ++: exhibited muscarinic modulation activity for at least one muscarinic receptor, M1, M2, M3, M4, at a concentration of between 30 μM and 5 μM; +: exhibited muscarinic modulation activity for at least one muscarinic receptor, M1, M2, M3, M4, at a concentration of greater than 30 μM; −: were not assayed or did not exhibit muscarinic modulation activity for at least one muscarinic receptor, M1, M2, M3, M4, at the concentration at which the assay was performed
Description: CHO cells expressing muscarinic receptors (M1 to M5) are grown as monolayers in tissue culture flasks at 37° C. in a humidified atmosphere containing 5% CO2 and passaged every 3-5 days. The growth media is Dulbecco's modified eagles medium (DMEM, Gibco Cat#12430-054), containing 25 mM Hepes and supplemented with Fetal Bovine Serum (Hyclone, cat#SH30071.03), 0.1 mM of MEM non-essential amino acids (GIBCO, Cat#11140-050), 1 mM MEM Sodium Pyruvate (GIBCO Cat#11360-070) and 100 units/ml of Penicillin G and 100 μg/ml of Streptomycin (GIBCO Cat#15140-122). The recombinant muscarinic receptor cell lines are grown under antibiotic pressure with media containing 25 μg/ml zeocin and 500 μg/ml G418 (M1-CHO), 4 μg/ml puromycin, 50 μg/ml zeocin and 2.5 μg/ml blasticidin (M2 and M4-CHO) or 50 μg/ml zeocin and 4 μg/ml puromycin (M3 and M5-CHO).
Cells are harvested at 80-90% confluence using Versene (GIBCO Cat#15040-066), collected by centrifugation and seeded 18-24 hrs prior to running the calcium assay at a density of 5,000-10,000 cells/well in […], clear-bottomed 384-well plates (BD Biocoat, poly-D-lysine, Cat#356663). The day of the experiment, the cells are washed with a plate washer (Bioteck Instruments, ELX 405) using bath1 buffer (140-mM NaCl, 4.5-mM KCl, 2-mM CaCl2, 1-mM MgCl2, 10-mM Hepes-Na, 10-mM Glucose, pH 7.4, with NaOH) containing 1 mM Probenecid. Next, the calcium dye Fluo-3 (25 μl/well of Fluo-3 AM at 4 μM, Molecular Probes F-1241, in Bath 1 buffer containing 1 mM Probenecid) is added to the 25 μl of Bath 1 remaining in each well after the plate wash and the dye is loaded at 37° C. in the tissue culture incubator for 60-90 min. The fluorescent dye is removed using the plate washer with Bath 1 containing 1 mM Probenecid, leaving 25 μl/well of this solution after the wash. Alternatively, cells can be loaded with the calcium indicator from Molecular Devices (Calcium 3 Assay Reagents, Cat #R7181) adding 5 μl of a 5× solution dye in Bath 1 containing 1 mM Probenecid (10 ml per dye flask cat#R7182 to generate a solution […]) to 20 μl of the same buffer. After loading for 60 min. the experiment can be run without having to remove the dye.
Compounds are prepared at a 2× fold concentration in a 96-well plate (round bottom, Costar Corning cat#3656), by reconstituting the pre-spotted compounds in bath 1 containing 1 mM probenecid. The final concentration DMSO is 0.5%, and the amount of DMSO is normalized across the assay plate. To determine an agonist action of the compounds on muscarinic receptors, the reconstituted compounds are added (25 μl compound/well) to the cell assay plate (containing 25 μl/well) using the multi-channel robotic system of the FLIPR 3 Instrument (Molecular Devices, Sunnyvale, Calif.). To determine a functional inhibitory action of the compounds on muscarinic receptors, the reconstituted compounds are added (25 μl compound/well) to the assay plate and pre-incubated for 15 min prior to adding 25 μl of Carbachol at 3× the EC80 for each muscarinic subtype. Alternatively, the compounds can be co-applied simultaneously with the agonist. In both assay modes, the fluorescence is recorded for 60 sec (excitation wavelength is […] and emission wavelength 540 nm) using the FLIPR 3 instrument.
The potency, efficacy and selectivity of the muscarinic compounds were evaluated by screening the compound activity across the whole family (M1 to M5 cells).
CHO cells expressing muscarinic receptors (M1 to M5) and containing a gene reporter system β-Lactamase) with transcriptional control mediated by calcium release (NFAT activation). See Zlokarnik, G; Negulescu, P. A.; Knapp, T. E.; Mere, L; Burres, N; Feng, L; Whitney, M; Roemer, K; Tsien, R. Y. Quantitation of transcription and clonal selection of single living cells with β-lactamase as reporter. Science, 1998 Jan. 2, 279(5347):84-8. The cells are grown as monolayers in tissue culture flasks at 37° C. in a humidified atmosphere containing 5% CO2 and passaged every 3-5 days. […]

Structure (SMILES) | ACTIVITY (muscarinic modulation activity)
O=[N+]([O-])c1cccnc1N1CCN(C2CC3CCC2C3)CC1 (stereo not shown) [Compound 5, 1-(3-nitro-2-pyridyl)-4-norbornan-2-yl-piperazine] | + (exhibited muscarinic modulation activity for at least one muscarinic receptor, M1, M2, M3, M4, at a concentration of greater than 30 μM)
CCOC(=O)N1C2CCC1CC(N1CCN(c3nc(Cl)cc(C(F)(F)F)c3C#N)CC1)C2 (stereo not shown) [Compound 58, 3-[4-[6-chloro-3-cyano-4-(trifluoromethyl)-2-pyridyl]piperazin-1-yl]-8-azabicyclo[3.2.1]octane-8-carboxylic acid ethyl ester] | −
CCOC(=O)N1C2CCC1CC(N1CCN(c3ncc(CC)cn3)CC1)C2 (stereo not shown) [Compound 67, 3-[4-(5-ethylpyrimidin-2-yl)piperazin-1-yl]-8-azabicyclo[3.2.1]octane-8-carboxylic acid ethyl ester] | +++ (exhibited muscarinic modulation activity for at least one muscarinic receptor, M1, M2, M3, M4, at a concentration of less than 5 μM)
N#Cc1nccnc1N1CCN(C2CC3CCC2C3)CC1 (stereo not shown) [Compound 43, 3-(4-norbornan-2-ylpiperazin-1-yl)pyrazine-2-carbonitrile] | −
c1ccc(N2CCN(C3CC4CCC3C4)CC2)nc1 (stereo not shown) [Compound 65, 1-norbornan-2-yl-4-(2-pyridyl)piperazine] | ++ (exhibited muscarinic modulation activity for at least one muscarinic receptor, M1, M2, M3, M4, at a concentration of between 30 μM and 5 μM)
C1=CC2CC1CC2CN1CCN(c2cnccn2)CC1 (stereo not shown) [Compound 39, 2-[4-(5-bicyclo[2.2.1]hept-2-enylmethyl)piperazin-1-yl]pyrazine] | + (exhibited muscarinic modulation activity for at least one muscarinic receptor, M1, M2, M3, M4, at a concentration of greater than 30 μM)
NC(=O)c1ccc(N2CCN(CC3CC4CCC3C4)CC2)nc1 (stereo not shown) [Compound 14, 6-[4-(norbornan-2-ylmethyl)piperazin-1-yl]nicotinamide] | −
CCc1cnc(N2CCN(CC3CC4CCC3C4)CC2)nc1 (stereo not shown) [Compound 22, 5-ethyl-2-[4-(norbornan-2-ylmethyl)piperazin-1-yl]-pyrimidine] | −
C1=CC2CC1CC2CN1CCN(c2ncccn2)CC1 (stereo not shown) [Compound 76, 2-[4-(5-bicyclo[2.2.1]hept-2-enylmethyl)piperazin-1-yl]pyrimidine] | +++ (exhibited muscarinic modulation activity for at least one muscarinic receptor, M1, M2, M3, M4, at a concentration of less than 5 μM)
CCOC(=O)N1C2CCC1CC(N1CCN(c3ccncc3)CC1)C2 (stereo not shown) [Compound 25, 3-[4-(4-pyridyl)piperazin-1-yl]-8-azabicyclo[3.2.1]octane-8-carboxylic acid ethyl ester] | +++ (exhibited muscarinic modulation activity for at least one muscarinic receptor, M1, M2, M3, M4, at a concentration of less than 5 μM)
c1cnc(N2CCN(C3CC4CCC3C4)CC2)nc1 (stereo not shown) [Compound 71, 2-(4-norbornan-2-ylpiperazin-1-yl)pyrimidine] | ++ (exhibited muscarinic modulation activity for at least one muscarinic receptor, M1, M2, M3, M4, at a concentration of between 30 μM and 5 μM)
CCOC(=O)N1C2CCC1CC(N1CCN(c3ccncc3S(N)(=O)=O)CC1)C2 (stereo not shown) [Compound 49, 3-[4-(3-sulfamoyl-4-pyridyl)piperazin-1-yl]-8-azabicyclo[3.2.1]octane-8-carboxylic acid ethyl ester] | +++ (exhibited muscarinic modulation activity for at least one muscarinic receptor, M1, M2, M3, M4, at a concentration of less than 5 μM)
CCOC(=O)N1C2CCC1CC(N1CCN(c3ccc(C(N)=O)cn3)CC1)C2 (stereo not shown) [Compound 36, 3-[4-(5-carbamoyl-2-pyridyl)piperazin-1-yl]-8-azabicyclo[3.2.1]octane-8-carboxylic acid ethyl ester] | +++ (exhibited muscarinic modulation activity for at least one muscarinic receptor, M1, M2, M3, M4, at a concentration of less than 5 μM)
O=[N+]([O-])c1cccnc1N1CCN(CC2CC3C=CC2C3)CC1 (stereo not shown) [Compound 1, 1-(5-bicyclo[2.2.1]hept-2-enylmethyl)-4-(3-nitro-2-pyridyl)-piperazine] | ++ (exhibited muscarinic modulation activity for at least one muscarinic receptor, M1, M2, M3, M4, at a concentration of between 30 μM and 5 μM)
c1ccc2c(c1)nnn2C1CCN(C2CC3CCC2C3)CC1 (stereo not shown) [Compound 50, 1-(1-norbornan-2-yl-4-piperidyl)-1H-benzotriazole] | ++ (exhibited muscarinic modulation activity for at least one muscarinic receptor, M1, M2, M3, M4, at a concentration of between 30 μM and 5 μM)
NS(=O)(=O)c1cnccc1N1CCN(CC2CC3CCC2C3)CC1 (stereo not shown) [Compound 55, 4-[4-(norbornan-2-ylmethyl)piperazin-1-yl]pyridine-3-sulfonamide] | ++ (exhibited muscarinic modulation activity for at least one muscarinic receptor, M1, M2, M3, M4, at a concentration of between 30 μM and 5 μM)
CCOC(=O)N1C2CCC1CC(N1CCN(c3nc(C)cc(C)c3C#N)CC1)C2 (stereo not shown) [Compound 78, 3-[4-(3-cyano-4,6-dimethyl-2-pyridyl)piperazin-1-yl]-8-azabicyclo[3.2.1]octane-8-carboxylic acid ethyl ester] | ++ (exhibited muscarinic modulation activity for at least one muscarinic receptor, M1, M2, M3, M4, at a concentration of between 30 μM and 5 μM)
c1cnc(N2CCN(C3CC4CCC3C4)CC2)cn1 (stereo not shown) [Compound 44, 2-(4-norbornan-2-ylpiperazin-1-yl)pyrazine] | ++ (exhibited muscarinic modulation activity for at least one muscarinic receptor, M1, M2, M3, M4, at a concentration of between 30 μM and 5 μM)
c1ccc2c(c1)nnn2C1CCN(C2CC3CCC(C3)C2)CC1 (stereo not shown) [Compound 9, 1-[1-(3-bicyclo[3.2.1]octyl)-4-piperidyl]-1H-benzotriazole] | −
FC(F)(F)c1cnc(N2CCN(CC3CC4C=CC3C4)CC2)c(Cl)c1 (stereo not shown) [Compound 74, 1-(5-bicyclo[2.2.1]hept-2-enylmethyl)-4-[3-chloro-5-(trifluoromethyl)-2-pyridyl]-piperazine] | −
Cc1cccnc1N1CCN(C2CC3CCC2C3)CC1 (stereo not shown) [Compound 60, 1-(3-methyl-2-pyridyl)-4-norbornan-2-yl-piperazine] | + (exhibited muscarinic modulation activity for at least one muscarinic receptor, M1, M2, M3, M4, at a concentration of greater than 30 μM)
FC(F)(F)c1ccc(N2CCN(CC3CC4C=CC3C4)CC2)nc1 (stereo not shown) [Compound 47, 1-(5-bicyclo[2.2.1]hept-2-enylmethyl)-4-[5-(trifluoromethyl)-2-pyridyl]-piperazine] | + (exhibited muscarinic modulation activity for at least one muscarinic receptor, M1, M2, M3, M4, at a concentration of greater than 30 μM)
